A short description of series [1]: Microsomal (metabolic) stability, human liver microsomes. The note with it: human, liver microsomes. The text has this: (§1) By using the measured microsomal in vitro t1/2, a calculated value for the intrinsic clearance Clint can be determined. This value states the measure in which a drug that is not bound to plasma proteins is irreversibly removed from the body by the liver. This value is expressed in mL/min/kg which can be interpreted as the volume of blood in mL that is cleared of a drug per minute per kilogram of body weight. The CLint is less sensitive to used variables in ADME assays since the amount of microsomal protein and the volume of the incubation are all taken into account. (Sohlenius-Sternbeck et al., Xenobiotica, 2012, 42, 841-853)
(§2) Liver microsomes (20 mg protein/ml), NADPH regenerating system solutions A & B and 5 mM stock compound solution (100% DMSO) are prepared. The reaction mixture finally contains 713 μL purified water, 200 μL 0.5 M potassium phosphate pH 7.4, 50 μL NADPH regenerating system solution A (BD Biosciences Cat. No. 451220), 10 μL NADPH regenerating system solution B (BD Biosciences Cat. No. 451200) and 2 μL of the compound stock solution (10 μM final concentration). The reaction mixture is warmed to 37° C. for 5 minutes in a water bath and the reaction is initiated by addition of 25 μL of liver microsomes (0.5 mg protein/ml final concentration). At different time points (0 min-15 min-30 min-60 min-120 min-240 min-360 min-24 h), 20 μL is withdrawn and 80 μL cold acetonitrile is added on ice for 10 minutes. Then the mixtures are centrifuged at 13 000 rpm for 5 min at 4° C. The supernatant is further diluted in 90% water/MeCN (1/25) to fall within the range of the LC/MS/MS analysis. At each time point, the compound is analysed using LC/MS/MS with the same UPLC system as described above. A standard curve of six points was made to fit the measured concentrations. Verapamil was used as a positive control.
(§3) All obtained readouts were processed using Microsoft Excel. In order to determine the microsomal half-life t1/2 of the compounds, the rate constant k was determined by plotting the exponential decay graphs using GraFit. Microsomal t1/2 was determined using the following formula: […]

Series [2] is described as follows: Plasma stability, mouse plasma. It counts as in vitro ADME. The note with it: 37° C., remaining parent compound, read-out: Plasma stability (% recovery after 6 h), Mouse. How it is done:
(§4) 5 μl of a 10 mM stock solution of the compound in DMSO was added to 995 μl of plasma to obtain a 50 μM final solution. The mixture was gently shaken for 6 h at 37° C. Aliquots of 100 μl were taken at various time points (0, 0.5 h, 1 h, 2 h, 3 h and 6 h) and diluted with 400 μl of cold methanol (stored at 4° C.). The suspension was centrifuged at 14000 rpm for 5 min. 50 μl of the supernatant was diluted with 950 μl of methanol and analysed with LC/MS/MS. The samples were analysed in triplicate. The experiment was done in duplicate. […] Enalapril maleate was used as a control in mice, rats, and in human.

Series [3] deals with IMR-32 Neuroblastoma cells. The series can be described thus: Erastin-induced ferroptosis in IMR-32 neuroblastoma cells (Sytox Green cell death readout). It counts as cell-based. Particulars: Homo sapiens; IMR-32 cells, 10 μM erastin, compounds 1 nM to 1 μM, triplicate; read-out: IC50, antiferroptotic activity in response to erastin-induced ferroptosis. How it is done:
In the present invention the potency of a compound inhibiting (or reducing) ferroptosis and/or oxytosis are determined in in vitro or in vivo assays. Typically in vitro assays are used to measure the potency of a candidate compound. Examples of suitable in vitro assays are cellular assays. One non-limiting example of an assay involves the use of the IMR-32 neuroblastoma cell line. The latter is stimulated to enter into ferroptosis upon stimulation with 10 μM erastin, a documented ferroptosis inducer (see for example Dixon et al (2012) Cell 149, 1060-1072 and ferroptosis inhibitors are evaluated for the prevention of erastin induced ferroptosis. Yet another assay is based the glutamate-induced cell death in the hippocampal cell line HT22 and ferroptosis/oxytosis inhibitors are evaluated for the prevention of cell death (see Henke N. et al (2013) Cell Death and Disease 4, e470). Still another assay is based on the sorafinib induced cell death (described to be iron dependent cell death) in hepatocellular carcinoma cells and ferroptosis inhibitors are evaluated for the prevention of cell death (see Louandre C. et al (2013) Int. J. Cancer 133, 1732). The calculated potency of a compound inhibiting ferroptosis and/or oxytosis is typically depicted as an IC50 value. Examples of suitable in vivo assays are typically pre-clinical disease models of for example mice for the diseases benefiting the application of ferroptosis and/or oxytosis inhibitors, as described herein. One non-limiting example of an in vivo assay is based on inducing liver damage in mice by administering the herbicide diquat dibromide monohydrate and ferroptosis inhibitors are evaluated based on reduced levels of liver transaminases in serum (see Ran Q et al (2004) J. Biol. Chem. 279, 53, 55137).
The IC50 values for the individual compounds of the invention were determined in the neuroblastoma, IMR-32 cell line. In brief, IMR-32 cells were subjected to 10 μM erastin, the latter compound is known to induce ferroptosis. A concentration gradient (ranging from 1 nM to 1 μM) of the compounds was applied to the cells. These experiments were performed in a 96-well format (in triplicate), and cell death was analyzed in a fluorescent plate reader by use of a fluorescent cell death dye (1.5 μM Sytox Green). The IC50 values depicted in Table 1 are the concentration values for the individual compounds which are able to overcome ferroptosis.

A short description of series [4]: Microsomal (metabolic) stability, rat liver microsomes. The note with it: rat, liver microsomes.
Text: as §1, §2, §3

Series [5] is described as follows: Kinetic solubility (turbidimetric method). It counts as physicochemical. The note with it: 10 mM PBS pH 7.4, 2% DMSO, test range 3.125-200 μM, 2 h at 37° C. The protocol:
A turbidimetric method was used. First a series of DMSO compound stock solutions was prepared ([…]). An aliquot of 4 μL stock solution was added to 196 μL PBS buffer (pH 7.4). A series of concentrations were prepared (3.13-200 μM), including a blank on a microtiter plate. (2% DMSO-D6) The microtiter plate was shaken for 10 seconds and incubated for 2 hours at 37° C. When there was no turbidity measured at a given concentration the sample was assumed to be dissolved.

Series [6] in a line: Microsomal (metabolic) stability, mouse liver microsomes. The note with it: liver microsomes, pH 7.4.
Text: as §1, §2, §3

A short description of series [7]: Plasma stability, rat plasma. The note with it: 37° C., remaining parent compound, read-out: Plasma stability (% recovery after 6 h), Rat. In kind it is in vitro ADME. How it is done: as §4
Series [8] in a line: Plasma stability, human plasma. In kind it is in vitro ADME. The note with it: 37° C., remaining parent compound, read-out: Plasma stability (% recovery after 6 h), Human. The protocol: as §4

Experimental findings from patent publication US11339124B2, “3-(benzylamino)-4-(cyclohexylamino)-n-(2-(piperazin-1-yl)ethyl)benzenesulfonamide derivatives and related ferrostatin-1 analogues as cell death inhibitors for treating e.g. stroke” (VIB VZW, priority 2018, dated 2022) are described below.

With `O=S(=O)(NCCN1CCOCC1)c1ccc(NC2CCCCC2)c(NCc2ccccc2)c1` [Compound 35, 3-(benzylamino)-4-(cyclohexylamino)-N-(2-morpholinoethyl)benzenesulfonamide], the values for the CLint scaled at 10 µM in series [1] (pH 7.4), in series [4] (pH 7.4) and in series [6] were 22.6 ± 8.1 mL/min/kg, 326 ± 13.2 mL/min/kg and 1220 ± 48 mL/min/kg, respectively. Moreover, the half-life at 10 µM is 58.8 ± 21 min in series [1] (pH 7.4, Microsomal stability (t1/2), human liver microsomes, 0.5 mg protein/ml, 10 μM compound, 37° C.); 10.4 ± 0.42 min in series [4] (pH 7.4, Microsomal stability (t1/2), rat liver microsomes, 0.5 mg protein/ml, 10 μM compound, 37° C.); 3.06 ± 0.12 min in series [6]. Also, the recovery at 6 h, 50 μM in series [2], in series [7] and in series [8] was 100% each time. In addition, the IC50 in series [3] came to 24 nM. Also, the “Solubility (kinetic)” value in series [5] lay in the range of 50 to 100 µM.
